# Data taken from patent US5185338A, “Medicament for treating cerebral insufficiency diseases, novel 2-(1-piperazinyl)-4-phenylcycloalkanopyrimidine derivatives, and process for the production thereof” (Dainippon Pharmaceutical Co., Ltd., priority 1989, dated 1993).
# Like-named read-outs stand apart in the source and are kept apart here.
# Key:
# [1] = tested on: scopolamine-induced hypermotility; assay: Antagonistic effect on scopolamine-induced hypermotility; assay type: in vivo, mice (Std-ddY strain); conditions: Mus musculus, po, read-out: Inhibitory ratio (% antagonism of scopolamine-induced hypermotility)
# Experimental: Antagonistic effect on scopolamine-induced hypermotility:
# A test compound was orally administered to each mouse, and 90 minutes after the administration, each one test animal was placed within a test cage (25×35×30 cm). After 30 minutes, scopolamine hydrobromide (1 mg/kg) was intraperitoneally administered to the mice and then the motility was measured with Animex activity meter for 30 minutes. The effect of test compounds was expressed as % antagonism (complete antagonism to the motility level of non-dosed animals=100%).
# [2] = tested on: scopolamine-induced deficit of spontaneous alternation behavior; assay: Improving effect on scopolamine-induced deficit of spontaneous alternation behavior (T-maze); assay type: in vivo, mice (Std-ddY strain); conditions: scopolamine hydrobromide 1 mg/kg, non-dosed mice=100%
# Text: Improving effect on scopolamine-induced deficit of spontaneous alternation behavior:
# A group of 15-25 male mice (Std-ddY strain, 22-28 g) was used for evaluating effect of the test compounds on scopolamine-induced deficit of spontaneous alternation in a T-maze, which is a known animal model of memory impairment due to hypofunction of the cholinergic nervous system. The T-maze used consists of a stem and two arms which are 25 cm long, 5 cm wide and 10 cm high. The first 10 cm of the stem and last 10 cm of each arm are divided by sliding doors into start and goal boxes.
# A test compound and scopolamine hydrobromide (1 mg/kg) were intraperitoneally administered to each mouse, and after 30 minutes a test of spontaneous alternation task in the T-maze was continuously repeated for 8 trials. Commonly, naive mice alternate each (right and left) goal box in turn, but scopolamine-treated animals tend to enter the same goal box repeatedly. The effect of the test compounds was expressed as % improvement (complete improvement to the alternation level of non-dosed mice=100%).
# [3] = tested on: cycloheximide-induced amnesia of passive avoidance response; assay: Improving effect on cycloheximide-induced amnesia of passive avoidance response; assay type: in vivo, mice (Std-ddY strain); conditions: cycloheximide 60 mg/kg s.c., retention trial at 24 hours, non-dosed animals=100%
# Text: Improving effect on cycloheximide-induced amnesia of passive avoidance response:
# Anti-amnesic effect of the test compounds was examined using mice given cycloheximide which is a known amnesia-inducing agent.
# A group of 15-20 male mice (Std-ddY strain, 27-33 g) was subjected to training and retention trials for a passive avoidance task in a step-down apparatus (30×30×50 cm) with a grid floor and a wooden platform (4×4×4 cm) in a center of the floor. In the training trial, each mouse was first placed on the platform, and when the mouse stepped down on the grid floor, an electric shock (1 Hz, 0.5 sec, 60 VDC) was delivered to the feet for 15 seconds. Immediately after the training trial, cycloheximide (60 mg/kg, s.c.) and a test compound (i.p.) were administered. The retention trial was carried out 24 hours thereafter, and the time from placing again each mouse on the platform until stepping down on the grid floor (step-down latency) was measured. The step-down latency in the retention trial was markedly shortened by treatment of cycloheximide (amnesia). The effect of test compounds was assessed by % improvement (complete improvement to the latency level of non-dosed animals=100%).
# [4] = tested on: sodium nitrite-induced anemic hypoxia; assay: Protective effect on sodium nitrite-induced anemic hypoxia; assay type: in vivo, mice (Std-ddY strain); conditions: 10 mg/kg i.p., 2 hours before sodium nitrite 225 mg/kg i.p.; vs sodium nitrite alone
# Text: Protective effect on sodium nitrite-induced anemic hypoxia:
# It is known that sodium nitrite (NaNO2) induces anemic hypoxia by converting hemoglobin to metohemoglobin, resulting in a severe impairment of brain function and ultimately in death. Based on the above knowledge, prolongation of survival time after sodium nitrite treatment was used as an index for antihypoxic effect of the test compounds.
# A group of 20 male mice (Std-ddY strain, 25-30 g) was intraperitoneally given a test compound (10 mg/kg), and 2 hours after the treatment with the test compound, a lethal amount (225 mg/kg) of sodium nitrite was intraperitoneally administered, and then, the survival time of each mouse was measured. The effect of the test compounds was assessed by the prolongation rate (%) of survival time compared with that of the animals treated with sodium nitrite alone.
# dopamine (D2) receptor = target: T1, dopamine (D2) receptor (Rattus norvegicus, UniProt P61169); assay: Dopamine (D2) receptor binding assay, [3H] spiperone; parameters: species or system rats; conditions: rat brain crude synaptosome fractions
# T1 construct: Crude synaptosome fractions prepared from some brain regions in rats were used as the receptor sources; from tissue
# T1 sequence (P61169 whole entry): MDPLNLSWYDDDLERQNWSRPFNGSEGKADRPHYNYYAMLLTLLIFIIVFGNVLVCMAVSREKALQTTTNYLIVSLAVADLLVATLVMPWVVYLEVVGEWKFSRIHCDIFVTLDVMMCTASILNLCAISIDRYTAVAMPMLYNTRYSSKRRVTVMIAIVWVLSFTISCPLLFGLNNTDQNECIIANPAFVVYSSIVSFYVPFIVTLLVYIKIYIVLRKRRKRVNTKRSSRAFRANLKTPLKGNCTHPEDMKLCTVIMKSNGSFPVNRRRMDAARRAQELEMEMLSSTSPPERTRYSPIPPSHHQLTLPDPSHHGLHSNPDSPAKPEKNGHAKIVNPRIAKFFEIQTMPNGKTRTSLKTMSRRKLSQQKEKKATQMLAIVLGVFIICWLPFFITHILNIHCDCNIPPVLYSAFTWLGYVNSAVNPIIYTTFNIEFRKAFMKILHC
# Experimental: (§1) Effect of binding to dopamine (D2), serotonin (S1, S2) and adrenaline (α1) receptor (in vitro receptor binding assay):
# (§2) Dopamine (D2), serotonin (S1, S2) and adrenaline (α1) receptor binding assays were carried out according to the methods of I. Creese et al. [Eur. J. Pharmacol., 46, 377 (1977)], S. J. Peroutka et al. [Mol. Pharmacol., 16, 687 (1979)], J. E. Leysen et al. [Mol. Pharmacol., 21, 301 (1982)], and D. C. U'Prichard et al. [Mol. Pharmacol., 13, 454 (1977)], respectively.
# (§3) Crude synaptosome fractions prepared from some brain regions in rats were used as the receptor sources, and [^3 H] spiperone (D2), [^3 H] serotonin (S1), [^3 H] ketanserin (S2) and [^3 H] WB-4101 (α1) were used as the labelled ligands. The binding assay was performed by incubating aliquots of synaptosome fraction in buffer solution (final volume 1 ml) containing the receptor source and the labelled ligand in the presence of a test compound having various concentration thereof for a fixed time. The assay was terminated by rapid filtration through Whatman GF/B glass fiber filters attached to a cell-harvester (Brandel) and radioactivity on the filters was counted with a scintillation counter. Specific binding was calculated as a difference between the amount of radioactivity in the assay group and that in the control group which was separately measured likewise in the presence of an excess amount of an unlabelled ligand [spiperone (D2), serotonin (S1), methysergide (S2) and prazosin (α1)] instead of […]. The IC50 value of the test compounds (i.e. the concentration causing 50% inhibition of the labelled ligand specific binding) was determined by probit analysis.
# serotonin (S1) receptor = assay: Serotonin (S1) receptor binding assay, [3H] serotonin; parameters: species or system rats; conditions: rat brain crude synaptosome fractions
# Experimental: as §1, §2, §3
# serotonin (S2) receptor = target: T2, serotonin (S2) receptor (Rattus norvegicus, UniProt P14842); assay: Serotonin (S2) receptor binding assay, [3H] ketanserin; parameters: species or system rats; conditions: rat brain crude synaptosome fractions
# T2 construct: Crude synaptosome fractions prepared from some brain regions in rats were used as the receptor sources; from tissue
# T2 sequence (P14842 whole entry): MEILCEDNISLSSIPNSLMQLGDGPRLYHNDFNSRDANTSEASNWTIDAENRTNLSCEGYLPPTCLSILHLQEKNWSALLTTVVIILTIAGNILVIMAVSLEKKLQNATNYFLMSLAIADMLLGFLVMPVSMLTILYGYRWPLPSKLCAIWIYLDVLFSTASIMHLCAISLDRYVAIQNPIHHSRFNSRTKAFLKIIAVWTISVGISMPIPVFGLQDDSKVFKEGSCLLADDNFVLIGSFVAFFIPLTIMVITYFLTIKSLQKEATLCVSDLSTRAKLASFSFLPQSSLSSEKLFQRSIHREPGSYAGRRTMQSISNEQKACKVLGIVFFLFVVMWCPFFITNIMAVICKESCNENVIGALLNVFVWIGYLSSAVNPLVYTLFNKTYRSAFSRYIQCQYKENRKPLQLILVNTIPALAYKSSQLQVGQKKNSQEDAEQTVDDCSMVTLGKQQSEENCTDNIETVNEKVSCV
# Experimental: as §1, §2, §3
# adrenaline (α1) receptor = assay: Adrenaline (α1) receptor binding assay, [3H] WB-4101; parameters: species or system rats; conditions: rat brain crude synaptosome fractions
# Experimental: as §1, §2, §3
# [5] = tested on: brain serotonin metabolite, 5-hydroxyindole-3-acetic acid (5-HIAA); assay: Increasing effect on concentration of brain serotonin metabolite (5-HIAA); assay type: in vivo, mice (Std-ddY strain); conditions: Mus musculus, 2 h, two hours after treatment, 5-HIAA level of non-dosed animals=100%
# Text: Increasing effect on concentration of brain serotonin metabolite:
# A group of 5 male mice (Std-ddY strain, 25-30 g) was used for examining effect of the test compounds on concentration of a brain serotonin metabolite, 5-hydroxyindole-3-acetic acid (5-HIAA).
# Mice were killed by decapitation two hours after the treatment with the test compounds. Brains were quickly taken out, homogenized in 1N formic acid-acetone solution, and centrifuged in a refrigerated ultracentrifuge. The supernatant was evaporated by blowing with N2 gas, and then, the residue was again dissolved in 0.01N acetic acid, and served for determining 5-HIAA concentration by high performance liquid chromatography with electrochemical detection. The effect of the test compounds on 5-HIAA concentration was shown as % of control (5-HIAA level of non-dosed animals=100%).
# mice = assay: Acute toxicity; assay type: in vivo, mice (Std-ddY strain); conditions: 200 mg/kg orally; 7 days observation; 5 male mice
# Experimental: Experiment 8 Acute toxicity
# A group of 5 male mice (Std-ddY strain, 25-30 g) was used. The test compound (200 mg/kg) was orally administered to the test animal in the form of a 0.5% tragacanth solution or suspension, and for 7 days after the administration of the test compound, the lethality of animals was observed.
# [6] = Chem. Pharm. Bull., 31, 2254-2261 (1983); cited from earlier work
# [7] = U.S. Pat. No. 3,915,976; U.S. Pat. No. 3,305,553; cited from earlier work
# [8] = tested on: reserpine-induced hypothermia; assay: Anti-reserpine effect (reserpine-induced hypothermia); assay type: in vivo, mice (Std-ddY strain); conditions: 100 mg/kg orally; reserpine 5 mg/kg s.c.; rectal temperature at 4 hours; complete inhibition=100%
# Experimental: A group of 5 male mice (Std-ddY strain, 22-25 g) was used for examining the antagonistic effect of the test compounds on reserpine-induced hypothermia, which is known as a screening method for the antidepressant drug.
# Reserpine (5 mg/kg) was subcutaneously administered to the mice and further a test compound was orally administered thereto. Four hours after the administration, rectal temperature of the mice was measured. The effect of the test compounds was estimated by % inhibition (complete inhibition to the hypothermia by reserpine in non-dosed animals=100%).
# [9] = 30 mg/kg, orally, scopolamine hydrobromide 1 mg/kg i.p., complete antagonism to motility level of non-dosed animals=100%
smiles,measurement,setting,value
"Fc1ccc(-c2nc(N3CCNCC3)nc3c2CCC3)cc1 [Ex. 1, 2-(1-piperazinyl)-4-(4-fluorophenyl)-6,7-dihydro-5H-cyclopentapyrimidine]",inhibition in vivo at 3 mg/kg,[1],60.7%
same,Improvement of scopolamine-induced deficit of spontaneous alternation,[2]; 0.02 mg/kg i.p.,47.8%
same,Improvement of scopolamine-induced deficit of spontaneous alternation,[2]; 0.5 mg/kg i.p.,51.9%
same,Improvement of cycloheximide-induced amnesia (step-down latency),[3]; 0.5 mg/kg i.p.,33.8%
same,Improvement of cycloheximide-induced amnesia (step-down latency),[3]; 2.0 mg/kg i.p.,65.8%
same,Prolongation rate of survival time,[4],36.7%
same,IC50,dopamine (D2) receptor,0.92 µM
same,IC50,serotonin (S1) receptor,0.75 µM
same,IC50,serotonin (S2) receptor,0.029 µM
same,IC50,adrenaline (α1) receptor,1.1 µM
same,response vs control in vivo at 100 mg/kg,[5],150%
same,Lethality of animals,mice,no animal was died
"c1ccc(-c2nc(N3CCNCC3)nc3c2CCCCCC3)cc1 [Ex. 9, 2-(1-Piperazinyl)-4-phenyl-5,6,7,8,9,10-hexahydrocyclooctapyrimidine]",inhibition in vivo at 10 mg/kg,"[1]; 10 mg/kg, orally, scopolamine hydrobromide 1 mg/kg i.p., complete antagonism to motility level of non-dosed animals=100%",60.4%
same,Improvement of scopolamine-induced deficit of spontaneous alternation,[2]; 2.0 mg/kg i.p.,36.7%
same,Improvement of cycloheximide-induced amnesia (step-down latency),[3]; 0.5 mg/kg i.p.,85.8%
same,Lethality of animals,mice,no animal was died
"c1ccc(CN2CCN(c3nc4c(c(-c5ccccc5)n3)CCCC4)CC2)cc1 [4-phenyl-2-(4-benzyl-1-piperazinyl)-5,6,7,8-tetrahydroquinazoline]",Hypoglycemic activity,[6],weak hypoglycemic activity
"c1ccc(-c2nc(N3CCNCC3)nc3c2CCCC3)cc1 [4-phenyl-2-(1-piperazinyl)-5,6,7,8-tetrahydroquinazoline]",Hypoglycemic activity,[6],weak hypoglycemic activity
"Fc1ccc(-c2nc(N3CCNCC3)nc3c2CCCCCC3)cc1 [Ex. 10, 2-(1-Piperazinyl)-4-(4-fluorophenyl)-5,6,7,8,9,10-hexahydrocyclooctapyrimidine]",inhibition in vivo at 3 mg/kg,[1],50.6%
same,Improvement of scopolamine-induced deficit of spontaneous alternation,[2]; 2.0 mg/kg i.p.,63.0%
same,Improvement of cycloheximide-induced amnesia (step-down latency),[3]; 0.5 mg/kg i.p.,67.1%
same,IC50,dopamine (D2) receptor,0.13 µM
same,IC50,serotonin (S1) receptor,1.3 µM
same,IC50,serotonin (S2) receptor,0.019 µM
same,IC50,adrenaline (α1) receptor,1.2 µM
"c1ccc(-c2nc(N3CCNCC3)nc3c2CCCCC3)cc1 [Ex. 7, 2-(1-Piperazinyl)-4-phenyl-6,7,8,9-tetrahydro-5H-cycloheptapyrimidine]",inhibition in vivo at 30 mg/kg,[1]; [9],78.2%
same,Improvement of scopolamine-induced deficit of spontaneous alternation,[2]; 10.0 mg/kg i.p.,44.0%
same,Improvement of cycloheximide-induced amnesia (step-down latency),[3]; 0.5 mg/kg i.p.,70.4%
same,IC50,dopamine (D2) receptor,2 µM
same,IC50,serotonin (S2) receptor,0.038 µM
"CN1CCN(c2nc3c(c(-c4ccccc4)n2)CCC3)CC1 [6,7-dihydro-2-(4-methyl-1-piperazinyl)-4-phenyl-5H-cyclopenta[d]pyrimidine]",Anti-inflammatory activity,[7],have anti-inflammatory activity
"CN1CCN(c2nc3c(c(-c4ccccc4)n2)CCCCC3)CC1 [6,7,8,9-tetrahydro-2-(4-methyl-1-piperazinyl)-4-phenyl-5H-cyclohepta[d]pyrimidine]",Anti-inflammatory activity,[7],have anti-inflammatory activity
CN1CCN(c2nc3c(c(-c4ccc(F)cc4)n2)CCCC3)CC1 [Ex. 28],inhibition in vivo at 30 mg/kg,[1]; [9],96.4%
same,IC50,dopamine (D2) receptor,0.35 µM
same,IC50,serotonin (S2) receptor,0.087 µM
same,response vs control in vivo at 100 mg/kg,[5],156%
same,Inhibitory ratio (% inhibition of reserpine-induced hypothermia),[8],37%
"Fc1ccc(-c2nc(N3CCNCC3)nc3c2CCCCC3)cc1 [Ex. 2, 2-(1-piperazinyl)-4-(4-fluorophenyl)-6,7,8,9-tetrahydro-5H-cycloheptapyrimidine]",inhibition in vivo at 30 mg/kg,[1],69.2%
same,Improvement of scopolamine-induced deficit of spontaneous alternation,[2]; 2.0 mg/kg i.p.,39.1%
same,Improvement of cycloheximide-induced amnesia (step-down latency),[3]; 0.5 mg/kg i.p.,93.7%
same,Improvement of cycloheximide-induced amnesia (step-down latency),[3]; 2.0 mg/kg i.p.,72.8%
same,IC50,dopamine (D2) receptor,0.75 µM
same,IC50,serotonin (S1) receptor,3 µM
same,IC50,serotonin (S2) receptor,0.0096 µM
same,IC50,adrenaline (α1) receptor,3.4 µM
same,response vs control in vivo at 100 mg/kg,[5],135%
same,Lethality of animals,mice,no animal was died
